Earlier results, collected in PMC2924185 (Journal of the American Chemical Society, 2010).

Test system: panel of human protein kinases
Conditions: for selectivity score: judged by similar criteria

| Structure (SMILES) | potency among Src-family kinases (in words) | selectivity score |
| --- | --- | --- |
| Cc1ccc(-c2nn(C(C)(C)C)c3ncnc(N)c23)cc1 [PP1] | significantly more potent against Src-family members Fyn, Hck, and Lyn than against Src itself | – |
| CC(C)(C)n1nc(-c2ccc(Cl)cc2)c2c(N)ncnc21 [PP2] | significantly more potent against Src-family members Fyn, Hck, and Lyn than against Src itself | – |
| CNC(=O)c1cc(Oc2ccc(NC(=O)Nc3ccc(Cl)c(C(F)(F)F)c3)cc2)ccn1 [sorafenib] | – | 0.10 |
| CN[C@@H]1C[C@H]2O[C@@](C)([C@@H]1OC)n1c3ccccc3c3c4c(c5c6ccccc6n2c5c31)C(=O)NC4 [staurosporine] | – | 0.50 |
